Calls of active or inactive are those of the source.
Columns and labels:
[1] = test system: BJ; assay: cells; type: functional, cell-based; conditions: Homo sapiens
[2] = test system: BJ; assay: cytotoxicity toward BJ-TERT-LT-ST fibroblasts, dose response, cell-based, RAS-independent, luminescence (AID 1935); type: functional; conditions: Homo sapiens;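 further: BJ fibroblasts immortalized with TERT plus LT and ST oncogenes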
[3] = cytotoxicity toward DRD oncogenic fibroblasts, dose response, cell-based, non-viral oncogenic, luminescence (AID 1934); type: functional; conditions: Homo sapiens
[4] = test system: BJ; assay: cytotoxicity toward BJ-TERT fibroblasts, dose response, cell-based, RAS-independent, luminescence (AID 1933); type: functional; conditions: Homo sapiens
[5] = inhibitors of intracellular T. cruzi replication, confirmation, NIH3T3 host cells, beta-gal luminescence (AID 2044); type: functional, cell-based;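 further: intracellular parasites grown in NIH/3T3 mouse fibroblasts as host cells; luminescent beta-galactosidase reporter signal from transgenic T. cruzi replicating inside host cells; inhibitors lower the luminescence signal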
[6] = cytotoxicity toward NIH3T3 fibroblasts, dose response, counter-screen, cell-based, ATP luminescence, mouse fibroblasts (AID 2010); type: functional;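 further: cells exposed to compound for about 90 hours before reading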
[7] = target: T1, Fatty acid synthase (Homo sapiens, UniProt P49327); assay: FAS thioesterase domain inhibitors, dose response, biochemical, endpoint fluorescence intensity, uHTS hits (AID 624327); type: functional;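 further: fluorescence from hydrolysis of an O-methyl fluorescein acyl ester substrate by the enzyme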
[8] = target: T1, Fatty acid synthase; assay: FAS thioesterase domain inhibitors, dose response, biochemical, kinetic fluorescence intensity (AID 624326); type: functional;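 further: rate of fluorescence rise from hydrolysis of a fluorogenic O-methyl fluorescein ester substrate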
[9] = target: Genome polyprotein (dengue virus type 2, UniProt P29990); assay: Dengue-2 NS5 methyltransferase inhibitors, primary screen, biochemical, confirmation dose response (AID 588689); type: functional
[10] = target: T2, Protein RecA (Mycobacterium tuberculosis, UniProt P9WHJ3); assay: Fluorescence Cell-Free Homogeneous Dose Retest to Identify Inhibitors of RecA-Intein Splicing Activity. [Related pubchem assays (depositor defined):AID2097, AID2223, AID489010, AID492950]; type: functional
T2 sequence (P9WHJ3 whole entry): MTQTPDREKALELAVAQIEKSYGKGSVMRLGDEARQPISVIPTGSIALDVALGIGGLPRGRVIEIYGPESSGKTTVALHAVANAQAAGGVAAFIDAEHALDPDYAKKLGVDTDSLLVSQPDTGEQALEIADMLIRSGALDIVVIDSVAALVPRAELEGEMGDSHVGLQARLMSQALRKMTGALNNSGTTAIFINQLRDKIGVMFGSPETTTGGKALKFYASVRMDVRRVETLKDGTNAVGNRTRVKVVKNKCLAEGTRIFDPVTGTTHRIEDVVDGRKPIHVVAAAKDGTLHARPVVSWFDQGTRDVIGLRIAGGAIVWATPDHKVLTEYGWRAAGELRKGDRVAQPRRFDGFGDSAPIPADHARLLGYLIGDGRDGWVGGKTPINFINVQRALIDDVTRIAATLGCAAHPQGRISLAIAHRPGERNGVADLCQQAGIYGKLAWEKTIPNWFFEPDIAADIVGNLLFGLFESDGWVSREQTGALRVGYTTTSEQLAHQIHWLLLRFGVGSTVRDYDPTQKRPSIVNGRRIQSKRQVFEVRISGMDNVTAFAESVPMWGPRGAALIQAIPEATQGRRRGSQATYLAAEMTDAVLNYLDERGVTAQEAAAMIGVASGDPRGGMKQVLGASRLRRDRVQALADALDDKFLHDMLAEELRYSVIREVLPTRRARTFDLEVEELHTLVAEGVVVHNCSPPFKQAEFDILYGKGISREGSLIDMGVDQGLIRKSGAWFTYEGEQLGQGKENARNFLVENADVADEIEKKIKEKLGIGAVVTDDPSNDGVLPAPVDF

[11] = target: T3, Replicative DNA helicase DnaB (Mycobacterium tuberculosis, UniProt P9WMR3); assay: DnaB intein splicing inhibitors, dose response, biochemical, cell-free fluorescence (AID 449749); type: functional
T3 sequence (P9WMR3 whole entry): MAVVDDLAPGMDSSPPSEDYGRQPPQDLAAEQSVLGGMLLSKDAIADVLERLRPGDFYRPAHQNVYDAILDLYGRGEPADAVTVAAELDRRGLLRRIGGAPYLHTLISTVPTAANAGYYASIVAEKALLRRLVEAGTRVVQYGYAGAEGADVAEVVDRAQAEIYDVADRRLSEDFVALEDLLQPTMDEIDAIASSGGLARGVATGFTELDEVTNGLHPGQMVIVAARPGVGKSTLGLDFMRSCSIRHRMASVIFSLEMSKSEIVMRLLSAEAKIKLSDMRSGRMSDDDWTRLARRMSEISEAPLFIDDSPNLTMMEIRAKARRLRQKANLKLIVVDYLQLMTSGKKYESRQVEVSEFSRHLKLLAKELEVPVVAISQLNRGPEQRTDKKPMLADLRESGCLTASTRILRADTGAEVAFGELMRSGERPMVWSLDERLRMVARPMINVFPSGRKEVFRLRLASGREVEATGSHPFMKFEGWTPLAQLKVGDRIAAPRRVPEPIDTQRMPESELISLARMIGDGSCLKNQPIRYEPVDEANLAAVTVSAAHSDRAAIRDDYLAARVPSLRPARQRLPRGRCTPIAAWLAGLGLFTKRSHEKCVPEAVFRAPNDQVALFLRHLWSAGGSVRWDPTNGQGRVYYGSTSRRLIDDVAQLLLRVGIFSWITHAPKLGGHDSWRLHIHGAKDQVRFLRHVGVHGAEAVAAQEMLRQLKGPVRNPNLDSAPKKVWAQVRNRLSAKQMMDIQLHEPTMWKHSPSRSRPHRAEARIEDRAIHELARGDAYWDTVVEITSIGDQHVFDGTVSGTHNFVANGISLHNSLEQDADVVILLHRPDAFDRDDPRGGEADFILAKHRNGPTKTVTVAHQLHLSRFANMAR

[12] = inhibitors of clade B AD8 Env fusion, dose response, cell-based, cherry-pick (AID 652062); type: functional;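 further: luciferase signal from cell-cell fusion driven by HIV-1 clade B AD8 Env; potency is for inhibitors of fusion seen as a drop in luminescence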
[13] = off-target signal loss in HeLa-CEM21 co-culture – HeLa F-luc CTL cells, cherry-picked, counter-screen for HIV-1 Env fusion inhibitor project, dose response (AID 652040); type: functional, cell-based;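 further: potency for signal decrease marking cytotoxic or nonspecific inhibition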
[14] = ZM109 Env clade C HIV-1 fusion inhibitors, dose response, HeLa effector, CEM target cells, luciferase, cherry-pick (AID 652058); type: functional, cell-based
[15] = inhibitors of HIV Env-driven cell fusion, dose response, cherry-pick (AID 652057); type: functional, cell-based
[16] = cells; type: functional, cell-based
[17] = cells; type: functional, cell-based; remark: listed apart in the source
[18] = target: Induced myeloid leukemia cell differentiation protein Mcl-1 (Homo sapiens, UniProt Q07820); type: functional
[19] = target: T4, Heat shock factor protein 1 (Mus musculus, UniProt P38532); assay: inhibition of MG132-induced HSE-luciferase signal, confirmation, cell-based, NIH3T3, luminescence, dose retest (AID 2382); type: functional;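 further: NIH3T3 fibroblasts with HSF1-driven luciferase reporter stressed by proteasome inhibitor MG132; luminescence from HSF1-driven luciferase expression after 8 hours of MG132 stress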
T4 sequence (P38532 whole entry): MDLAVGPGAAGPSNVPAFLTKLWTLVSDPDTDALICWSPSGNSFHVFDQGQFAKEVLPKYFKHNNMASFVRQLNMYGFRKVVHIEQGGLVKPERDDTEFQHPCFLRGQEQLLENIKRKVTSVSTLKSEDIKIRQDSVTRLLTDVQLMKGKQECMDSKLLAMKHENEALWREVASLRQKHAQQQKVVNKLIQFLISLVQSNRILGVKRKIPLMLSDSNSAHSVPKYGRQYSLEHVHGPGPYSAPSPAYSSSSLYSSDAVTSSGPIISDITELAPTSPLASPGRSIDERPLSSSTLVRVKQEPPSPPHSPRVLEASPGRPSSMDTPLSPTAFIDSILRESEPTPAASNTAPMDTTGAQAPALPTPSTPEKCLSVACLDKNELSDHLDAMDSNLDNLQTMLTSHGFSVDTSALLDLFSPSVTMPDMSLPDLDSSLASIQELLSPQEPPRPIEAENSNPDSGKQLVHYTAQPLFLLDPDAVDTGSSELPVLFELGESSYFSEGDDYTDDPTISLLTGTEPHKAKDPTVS

[20] = target: FAD-linked sulfhydryl oxidase ALR (Homo sapiens, UniProt P55789); assay: inhibitors of human ALR sulfhydryl oxidase, dose response, biochemical, H2O2 detection, luminescence, cherry-pick (AID 493248)
FAD-linked sulfhydryl oxidase ALR, sequence (P55789 whole entry): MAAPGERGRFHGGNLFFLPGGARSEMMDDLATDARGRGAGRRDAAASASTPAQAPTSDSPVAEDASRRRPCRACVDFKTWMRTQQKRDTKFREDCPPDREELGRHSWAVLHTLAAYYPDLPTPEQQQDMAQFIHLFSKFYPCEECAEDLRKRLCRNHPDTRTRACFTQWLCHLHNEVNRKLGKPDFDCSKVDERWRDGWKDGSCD

T1 sequence (P49327 whole entry, the tested form may be a part): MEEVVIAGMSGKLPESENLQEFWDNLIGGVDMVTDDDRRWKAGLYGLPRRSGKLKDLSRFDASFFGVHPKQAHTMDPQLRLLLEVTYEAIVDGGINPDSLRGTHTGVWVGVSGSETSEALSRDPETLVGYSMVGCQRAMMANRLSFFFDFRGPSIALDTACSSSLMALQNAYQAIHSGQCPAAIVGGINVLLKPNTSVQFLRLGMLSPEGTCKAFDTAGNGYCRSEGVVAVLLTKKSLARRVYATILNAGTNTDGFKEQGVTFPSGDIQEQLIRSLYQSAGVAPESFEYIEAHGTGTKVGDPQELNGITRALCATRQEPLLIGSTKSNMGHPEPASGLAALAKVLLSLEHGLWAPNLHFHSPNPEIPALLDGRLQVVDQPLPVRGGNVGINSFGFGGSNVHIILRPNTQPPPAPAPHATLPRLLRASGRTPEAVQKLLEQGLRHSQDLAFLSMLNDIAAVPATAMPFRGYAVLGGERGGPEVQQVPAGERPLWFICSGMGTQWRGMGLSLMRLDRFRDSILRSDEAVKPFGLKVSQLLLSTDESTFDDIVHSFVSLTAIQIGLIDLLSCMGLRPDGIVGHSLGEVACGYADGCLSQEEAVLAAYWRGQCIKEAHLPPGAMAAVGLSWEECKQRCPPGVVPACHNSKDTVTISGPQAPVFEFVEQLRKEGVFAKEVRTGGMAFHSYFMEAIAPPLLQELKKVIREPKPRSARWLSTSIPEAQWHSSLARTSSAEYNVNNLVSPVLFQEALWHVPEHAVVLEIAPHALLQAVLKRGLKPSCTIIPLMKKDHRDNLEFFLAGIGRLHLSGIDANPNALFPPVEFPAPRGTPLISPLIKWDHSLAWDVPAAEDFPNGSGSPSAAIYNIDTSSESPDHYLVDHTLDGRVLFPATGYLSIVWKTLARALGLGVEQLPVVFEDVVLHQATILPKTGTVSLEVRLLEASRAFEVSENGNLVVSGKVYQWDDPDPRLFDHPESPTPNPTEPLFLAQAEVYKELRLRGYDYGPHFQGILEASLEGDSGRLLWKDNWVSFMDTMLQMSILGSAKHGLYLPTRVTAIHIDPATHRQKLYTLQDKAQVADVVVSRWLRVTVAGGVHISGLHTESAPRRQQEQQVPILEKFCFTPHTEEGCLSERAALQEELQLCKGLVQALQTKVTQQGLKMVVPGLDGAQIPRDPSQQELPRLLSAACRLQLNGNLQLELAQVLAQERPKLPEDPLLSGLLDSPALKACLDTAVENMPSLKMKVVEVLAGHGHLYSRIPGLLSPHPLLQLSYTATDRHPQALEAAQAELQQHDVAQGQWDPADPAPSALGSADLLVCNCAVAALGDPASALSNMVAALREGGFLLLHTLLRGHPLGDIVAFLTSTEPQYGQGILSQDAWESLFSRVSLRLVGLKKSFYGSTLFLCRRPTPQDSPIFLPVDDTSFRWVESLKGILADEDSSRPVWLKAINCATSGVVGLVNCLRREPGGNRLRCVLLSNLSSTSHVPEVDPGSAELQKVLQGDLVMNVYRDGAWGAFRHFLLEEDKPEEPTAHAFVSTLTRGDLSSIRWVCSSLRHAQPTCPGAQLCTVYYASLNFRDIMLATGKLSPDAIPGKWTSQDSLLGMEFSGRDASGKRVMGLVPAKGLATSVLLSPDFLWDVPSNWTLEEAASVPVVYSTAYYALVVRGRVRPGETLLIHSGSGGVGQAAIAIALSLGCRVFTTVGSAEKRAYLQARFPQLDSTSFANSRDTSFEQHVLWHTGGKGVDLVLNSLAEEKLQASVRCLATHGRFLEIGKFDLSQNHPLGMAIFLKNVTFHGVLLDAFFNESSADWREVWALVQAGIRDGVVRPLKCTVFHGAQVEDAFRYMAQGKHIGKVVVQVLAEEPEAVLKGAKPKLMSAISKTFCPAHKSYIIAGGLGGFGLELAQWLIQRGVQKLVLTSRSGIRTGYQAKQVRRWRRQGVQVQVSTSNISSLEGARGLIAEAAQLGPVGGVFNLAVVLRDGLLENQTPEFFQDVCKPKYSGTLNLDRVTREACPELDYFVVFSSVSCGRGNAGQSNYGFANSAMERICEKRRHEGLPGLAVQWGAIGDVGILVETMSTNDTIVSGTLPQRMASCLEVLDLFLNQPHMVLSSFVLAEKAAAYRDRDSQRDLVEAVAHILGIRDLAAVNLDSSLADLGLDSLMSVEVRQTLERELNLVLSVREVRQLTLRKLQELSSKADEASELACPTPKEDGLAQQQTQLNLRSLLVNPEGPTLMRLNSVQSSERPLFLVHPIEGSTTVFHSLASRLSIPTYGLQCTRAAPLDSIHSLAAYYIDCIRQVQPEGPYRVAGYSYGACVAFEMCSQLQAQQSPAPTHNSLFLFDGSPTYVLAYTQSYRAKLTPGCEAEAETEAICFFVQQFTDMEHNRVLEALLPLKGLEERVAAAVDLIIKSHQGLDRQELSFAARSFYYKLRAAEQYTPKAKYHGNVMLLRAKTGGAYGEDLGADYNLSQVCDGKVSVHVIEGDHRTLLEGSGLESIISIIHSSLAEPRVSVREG
Genome polyprotein, sequence (P29990 2492-3391 limits assumed): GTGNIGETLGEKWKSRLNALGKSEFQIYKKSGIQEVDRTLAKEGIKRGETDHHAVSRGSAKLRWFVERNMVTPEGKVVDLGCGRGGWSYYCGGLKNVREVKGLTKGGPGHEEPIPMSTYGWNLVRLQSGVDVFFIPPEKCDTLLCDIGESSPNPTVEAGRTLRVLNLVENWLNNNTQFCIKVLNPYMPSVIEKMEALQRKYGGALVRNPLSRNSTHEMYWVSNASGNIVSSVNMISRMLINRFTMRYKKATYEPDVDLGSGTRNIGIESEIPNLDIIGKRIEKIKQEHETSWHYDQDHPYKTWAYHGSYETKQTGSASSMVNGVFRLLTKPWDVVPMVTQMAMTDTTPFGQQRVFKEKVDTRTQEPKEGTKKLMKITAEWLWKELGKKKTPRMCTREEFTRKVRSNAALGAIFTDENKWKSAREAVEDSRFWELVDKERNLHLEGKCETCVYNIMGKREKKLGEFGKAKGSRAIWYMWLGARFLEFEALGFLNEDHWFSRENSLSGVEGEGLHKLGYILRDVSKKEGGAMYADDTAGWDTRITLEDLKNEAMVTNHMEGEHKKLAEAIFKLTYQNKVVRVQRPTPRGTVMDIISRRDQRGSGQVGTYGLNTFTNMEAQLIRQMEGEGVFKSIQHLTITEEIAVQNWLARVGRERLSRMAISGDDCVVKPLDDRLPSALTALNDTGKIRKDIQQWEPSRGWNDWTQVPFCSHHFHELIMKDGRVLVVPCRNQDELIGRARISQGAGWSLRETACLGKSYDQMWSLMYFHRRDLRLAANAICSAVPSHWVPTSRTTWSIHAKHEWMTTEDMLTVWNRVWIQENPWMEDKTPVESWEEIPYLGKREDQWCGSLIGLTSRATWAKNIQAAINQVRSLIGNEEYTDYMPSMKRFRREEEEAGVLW
Induced myeloid leukemia cell differentiation protein Mcl-1, sequence (Q07820 whole entry): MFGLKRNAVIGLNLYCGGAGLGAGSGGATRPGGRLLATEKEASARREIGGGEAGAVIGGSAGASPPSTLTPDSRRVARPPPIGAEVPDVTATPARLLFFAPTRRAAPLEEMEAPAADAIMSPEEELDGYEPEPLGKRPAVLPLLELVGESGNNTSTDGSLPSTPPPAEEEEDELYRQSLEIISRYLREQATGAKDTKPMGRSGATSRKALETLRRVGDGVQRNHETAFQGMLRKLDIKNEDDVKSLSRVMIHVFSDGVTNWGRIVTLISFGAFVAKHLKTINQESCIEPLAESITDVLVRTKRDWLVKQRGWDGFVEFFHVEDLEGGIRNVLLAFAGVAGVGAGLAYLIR

COC(=O)Cn1c(=O)c(C(=O)CCl)c(N)n(Cc2ccccc2)c1=O
EC50 [1]: 7 µM (active)
EC50 [2]: 16.3 µM (inconclusive)
EC50 [3]: 4.86 µM (inconclusive)
EC50 [4]: 0.797 µM (active)

O=C(Cn1cnc2cc([N+](=O)[O-])ccc2c1=O)Nc1ccc2c(c1)OCO2
EC50 [5]: 2.31 µM (active)
EC50 [6]: > 60 µM (not active)
IC50 [7]: 4.19 µM (active)
IC50 [8]: 3.65 µM (active)

CCc1ccccc1N1C(=O)C(Cl)=C(N2CCOCC2)C1=O
IC50 [9]: 83.2 µM (active)
EC50 [10]: 4.01 µM (active)
AC50 [11]: 6.57 µM (active)

CC(NC(=O)CN(C)CC(=O)Nc1ccc(Cl)c(C(F)(F)F)c1)c1ccccc1 (stereo unspecified)
AC50 [12]: 14.9 µM (active)
AC50 [13]: 15.7 µM (active)
AC50 [14]: 8.39 µM (active)
AC50 [15]: 4.06 µM (active)

COC(=O)Nc1ccc(S(=O)(=O)N(C)C)cc1
EC50 [16]: > 350 µM (not active)
EC50 [17]: > 350 µM (not active)

CC(C)OC(=O)/C(C#N)=C/c1cn(C)c2ccccc12
IC50 [7]: 13.8 µM (active)
IC50 [8]: 11.1 µM (active)

COc1cccc(-n2c(SCC(=O)N3CCOCC3)nc3c4ccccc4nc-3c2O)c1
EC50 [16]: > 350 µM (not active)
EC50 [17]: > 350 µM (not active)

Cc1cccc(NC(=O)C2CCN(S(=O)(=O)c3ccc4c(c3)OCCCO4)CC2)n1
AC50 [12]: 13.1 µM (active)
AC50 [13]: 42.2 µM (active)
AC50 [15]: 66.2 µM (active)

C=CCOC(=O)/C(=C\c1ccccc1)NC(=O)c1ccc(C)cc1
IC50 [18]: 2.49 µM (not active)

CC(C)C(=O)Nc1sc2c(c1C(N)=O)CCN(Cc1ccccc1)C2
EC50 [1]: > 150 µM (not active)
EC50 [2]: > 150 µM (not active)
EC50 [3]: 47.8 µM (active)
EC50 [4]: > 150 µM (not active)

COc1ccc(C(=O)Nn2c(SCc3cccc([N+](=O)[O-])c3)nc3ccccc3c2=O)cc1
IC50 [7]: 17.5 µM (active)
IC50 [8]: 14.3 µM (active)

CCN(CC)c1nc(Nc2ccccc2)nc(Oc2ccc(O)nn2)n1
AC50 [12]: 9.57 µM (active)
AC50 [13]: 5.99 µM (active)
AC50 [14]: 9.89 µM (active)
AC50 [15]: 6.13 µM (active)

COc1ccc2cc(C(C)C(=O)N3CCC(C(N)=O)CC3)ccc2c1 (stereo unspecified)
EC50 [16]: > 350 µM (not active)
EC50 [17]: > 350 µM (not active)

CC(=O)Nc1ccc2c(c1)CCCC2=O
EC50 [16]: > 350 µM (not active)
EC50 [17]: > 350 µM (not active)

COc1ccc(/C=C(\C#N)c2nc3ccccc3[nH]2)cc1O
EC50 [16]: > 350 µM (not active)
EC50 [17]: 8.05 µM (active)

O=C(Nc1ncc2c(n1)-c1ccccc1OC2)c1cccc([N+](=O)[O-])c1
IC50 [7]: 9.93 µM (active)
IC50 [8]: 13 µM (active)

CC(CCc1ccccc1)NC(=O)c1cccc([N+](=O)[O-])c1 (stereo unspecified)
IC50 [7]: 6.29 µM (active)
EC50 [19]: > 195 µM (not active)
IC50 [8]: 7.07 µM (active)

O=C(CCN1C(=O)/C(=C/c2ccccc2Cl)SC1=S)Nc1ccccn1
IC50 [7]: 6.7 µM (active)
IC50 [8]: 1.96 µM (active)

O=C(C[C@H]1C[C@H](C(=O)N2CCOCC2)[C@@]2(CCC3CCCC3)c3[nH]c4ccc(Cl)cc4c3CCN2C1=O)NCCc1ccccn1
IC50 [7]: 1.03 µM (active)
IC50 [8]: 1.15 µM (active)

Cc1ccc(C(=O)Nc2ccccc2C(=O)O)cc1S(=O)(=O)Nc1ccc(Br)cc1
AC50 [20]: 0.628 µM (active)
IC50 [9]: 49.8 µM (active)

C=C1CCN([C@@H](CC(C)C)C(=O)Nc2ccc(OC)cc2)S(=O)(=O)c2ccccc21
AC50 [12]: 3.63 µM (active)
AC50 [13]: 4.03 µM (active)
AC50 [14]: 2.47 µM (active)
AC50 [15]: 2.12 µM (active)

Source: ChEMBL document CHEMBL1201862, “PubChem BioAssay data set” (2004)
